Experimental data as given in patent US4727150A, “Pyridyl methylsulfinyl benzimidazole derivatives” (Takeda Chemical Industries, Ltd., priority 1984, dated 1988).

How the values were obtained:
[1] = test system: gastric mucosa; experiment: Ethanol-induced gastric mucosal injury in rats (action of protecting gastric mucosa); type: in vivo, Male Sprague-Dawley rats; details: Rattus norvegicus, po; 6 rats per group; 1, 3, 10 and 30 mg/kg into stomach; 100% ethanol 1 ml orally 30 min later; lesions measured 60 min after ethanol; read-out: Action of protecting gastric mucosa ID50
Description: As a method of determining the protecting ability of gastric mucosa, gastric mocosal injury induced by ethanol [Robert A., Gastroenterology 77, 761 (1979)] is often used. This method was applied to evaluation of the compounds of this invention. Male Sprague-Dawley rats of 7-weeks old were fasted for 24 hours. These animals were administered test compounds into stomach by using a gastric tube. After 30 minutes, 1 ml of 100% ethanol was administered orally. The animals were killed by carbon dioxide gas 60 minutes after ethanol administration. The stomach was removed together with the lower part of esophagus and the duodenum. The esophagus was clipped, 10 ml of 1% formalin solution was instilled into the stomach from the duodenum, and then the duodenum was clipped. The whole stomach was immersed in 1% formalin solution. About 15 minutes later, the stomachs were opened along the greater curvature. The length of the lesions which occurred in the gastric antral mucosa was measured under a dissecting microscope with a square-grid eye piece (×10). The sum total length of the individual lesions in each animal was measured, and the average value per group was calculated. Based on the difference between the average value of each group and that of the control group, the inhibition rate was determined. The test compound was suspended in a 5% gum arabic solution, and administered in a volume of 2 ml/kg. | ^(a) Using 6 rats per group, each of the test compounds was | administered in a dose of 1, 3, 10 and 30 mg/kg to determine ID50.

[2] = test system: mice; experiment: Oral toxicity in mice; type: in vivo; details: oral administration, 500 mg/kg

Row | Structure (SMILES) | ED50 [1] | fatal effect [2]
1 | CC(C)Oc1ccnc(C[S+]([O-])c2nc3cc(C(F)(F)F)ccc3[nH]2)c1 (centres unmarked) | 5.8 mg/kg | –
2 | CCCOc1ccnc(C[S+]([O-])c2nc3ccccc3[nH]2)c1C (centres unmarked) [2-[3-methyl-4-propoxy-2-pyridyl)methylsulfinylbenzimidazole] | 12.5 mg/kg | –
3 | COc1ccnc(C[S+]([O-])c2nc3cc(C(F)(F)F)ccc3[nH]2)c1C (centres unmarked) [R^1 =5-CF3, R^2 =CH3, R^3 =CH3, R^4 =H, reference compound] | 24 mg/kg | –
4 | CC(C)Oc1ccnc(C[S+]([O-])c2nc3cc(F)ccc3[nH]2)c1 (centres unmarked) [R^1 =5-F, R^2 =H, R^3 =CH(CH3)2, R^4 =H] | 8.8 mg/kg | –
5 | CCCOc1ccnc(C[S+]([O-])c2nc3ccccc3[nH]2)c1 (centres unmarked) [R^1 =H, R^2 =H, R^3 =(CH2)2 CH3, R^4 =H] | 7.2 mg/kg | no fatal effect
6 | CCCCOc1ccnc(C[S+]([O-])c2nc3ccccc3[nH]2)c1 (centres unmarked) [R^1 =H, R^2 =H, R^3 =(CH2)3 CH3, R^4 =H] | 9.8 mg/kg | –
7 | CCCCCCOc1ccnc(C[S+]([O-])c2nc3ccccc3[nH]2)c1 (centres unmarked) [R^1 =H, R^2 =H, R^3 =(CH2)5 CH3, R^4 =H] | 1.6 mg/kg | –
8 | CCCCCCCCOc1ccnc(C[S+]([O-])c2nc3ccccc3[nH]2)c1 (centres unmarked) [R^1 =H, R^2 =H, R^3 =(CH2)7 CH3, R^4 =H] | 1.6 mg/kg | –
9 | CC(C)Oc1ccnc(C[S+]([O-])c2nc3ccccc3[nH]2)c1 (centres unmarked) [R^1 =H, R^2 =H, R^3 =CH(CH3)2, R^4 =H] | 1.3 mg/kg | –
10 | COc1ccc2[nH]c([S+]([O-])Cc3ncc(C)c(OC)c3C)nc2c1 (centres unmarked) [reference compound] | 22 mg/kg | –
